Values belong to the compound of their own block, whether it stands above or below them. Active and inactive are the calls of the source. The calls are words filed in the database; no cut-off is given here.
Columns and labels:
Arginase-1 = target: T1, Arginase-1 (Homo sapiens, UniProt P05089); experiment: (§1) Displacement of [14C-guanidino]-L-arginine from human recombinant full length arginase 1 expressed in Escherichia coli BL21(DE3) by fixed point assay
T1 sequence (P05089 whole entry): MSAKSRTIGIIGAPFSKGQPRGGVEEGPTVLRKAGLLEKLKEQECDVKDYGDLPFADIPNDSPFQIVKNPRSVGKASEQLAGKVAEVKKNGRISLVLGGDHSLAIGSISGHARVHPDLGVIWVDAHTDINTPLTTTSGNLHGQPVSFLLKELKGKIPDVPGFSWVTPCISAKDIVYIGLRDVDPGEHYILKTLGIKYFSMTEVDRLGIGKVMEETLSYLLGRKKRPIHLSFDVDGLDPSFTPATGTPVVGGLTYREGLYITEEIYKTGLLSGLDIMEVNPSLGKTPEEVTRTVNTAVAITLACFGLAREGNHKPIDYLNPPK

[1] = target: T2, Arginase-1 (Homo sapiens) (UniProt P05089); experiment: as §1
T2 sequence (whole entry): T1 sequence (P05089 whole entry)

[2] = Ratio of IC50 for Mycoplana ramosa acetylpolyamine amidohydrolase to IC50 for HDAC8
Histone deacetylase 4 = Histone deacetylase 4 (Homo sapiens, UniProt P56524); experiment: Inhibition of human HDAC4 catalytic domain (residues Thr648-Thr1057) expressed in Escherichia coli BL21using fluorogenic substrate by fluorescence assay
Histone deacetylase 4, sequence (P56524 whole entry, the tested form may be a part): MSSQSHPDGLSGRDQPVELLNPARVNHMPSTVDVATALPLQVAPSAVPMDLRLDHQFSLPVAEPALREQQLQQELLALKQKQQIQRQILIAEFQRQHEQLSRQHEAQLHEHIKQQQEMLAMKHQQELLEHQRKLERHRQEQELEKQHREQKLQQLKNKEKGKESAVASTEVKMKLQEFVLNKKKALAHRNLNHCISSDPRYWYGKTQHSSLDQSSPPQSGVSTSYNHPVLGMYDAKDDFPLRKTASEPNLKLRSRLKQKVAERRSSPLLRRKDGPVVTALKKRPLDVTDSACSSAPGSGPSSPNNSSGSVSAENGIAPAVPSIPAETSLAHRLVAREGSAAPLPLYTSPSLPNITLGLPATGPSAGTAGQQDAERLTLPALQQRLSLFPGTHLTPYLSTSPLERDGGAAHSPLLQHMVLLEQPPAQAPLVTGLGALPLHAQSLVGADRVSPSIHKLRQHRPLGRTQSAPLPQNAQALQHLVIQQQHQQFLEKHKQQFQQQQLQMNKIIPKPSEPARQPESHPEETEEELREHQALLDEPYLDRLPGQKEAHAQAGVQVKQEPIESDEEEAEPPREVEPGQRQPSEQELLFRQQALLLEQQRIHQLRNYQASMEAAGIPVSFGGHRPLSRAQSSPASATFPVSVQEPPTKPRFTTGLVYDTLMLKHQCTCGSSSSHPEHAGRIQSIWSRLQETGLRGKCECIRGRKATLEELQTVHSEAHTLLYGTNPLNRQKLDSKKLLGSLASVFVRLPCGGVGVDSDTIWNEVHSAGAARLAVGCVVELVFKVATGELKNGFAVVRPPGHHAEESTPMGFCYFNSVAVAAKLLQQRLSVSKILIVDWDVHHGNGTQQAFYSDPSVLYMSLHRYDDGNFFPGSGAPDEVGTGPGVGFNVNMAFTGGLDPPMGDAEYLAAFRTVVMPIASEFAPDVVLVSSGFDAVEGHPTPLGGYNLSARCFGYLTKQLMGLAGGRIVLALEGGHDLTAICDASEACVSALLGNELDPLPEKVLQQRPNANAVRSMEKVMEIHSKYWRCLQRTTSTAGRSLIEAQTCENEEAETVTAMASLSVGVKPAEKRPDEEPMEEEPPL

- Kd (Arginase-1): 60 µM
SMILES: N[C@@H](CCCCC=O)C(=O)O

- inhibition [1]: inactive
- Ratio IC50 [2]: 73
SMILES: N[C@@H](CCCCC(=O)C(F)(F)F)C(=O)O

- IC50 (Histone deacetylase 4): 0.367 µM
SMILES: O=C(c1ccc(C(=O)C(F)(F)F)s1)N1CCn2c(-c3ccccc3)cnc2C1
